The source of these data is patent US8247556B2, “Method for preparing 6-substituted-7-aza-indoles” (Amgen Inc., priority 2005, dated 2012).

Test [1] relates to VEGF-stimulated HUVEC proliferation (Human Umbilical Vein Endothelial cells). Description: HUVEC Proliferation Assay. Format: cell-based. The note with it: VEGF 50 ng/mL, 72 h, CyQuant fluorescent dye, read-out: inhibited VEGF-stimulated HUVEC proliferation at a level. The method, then:
Human Umbilical Vein Endothelial cells are purchased from Clonetics, Inc., as cryopreserved cells harvested from a pool of donors. These cells, at passage 1, are thawed and expanded in EBM-2 complete medium, until passage 2 or 3. The cells are trypsinized, washed in DMEM+10% FBS+antibiotics, and spun at 1000 rpm for 10 min. Prior to centrifugation of the cells, a small amount is collected for a cell count. After centrifugation, the medium is discarded, and the cells are resuspended in the appropriate volume of DMEM+10% FBS+antibiotics to achieve a concentration of 3×10^5 cells/mL. Another cell count is performed to confirm the cell concentration. The cells are diluted to 3×10^4 cells/mL in DMEM+10% FBS+antibiotics, and 100 μL of cells are added to a 96-well plate. The cells are incubated at 37° C. for 22 h.
Prior to the completion of the incubation period, compound dilutions are prepared. Five-point, five-fold serial dilutions are prepared in DMSO, at concentrations 400-fold greater than the final concentrations desired. 2.5 μL of each compound dilution are diluted further in a total of 1 mL DMEM+10% FBS+antibiotics (400× dilution). Medium containing 0.25% DMSO is also prepared for the 0 μM compound sample. At the 22 h time point, the medium is removed from the cells, and 100 μL of each compound dilution is added. The cells are incubated at 37° C. for 2-3 h.
During the compound pre-incubation period, the growth factors are diluted to the appropriate concentrations. Solutions of DMEM+10% FBS+antibiotics, containing either VEGF or bFGF at the following concentrations: 50, 10, 2, 0.4, 0.08, and 0 ng/mL are prepared. For the compound-treated cells, solutions of VEGF at 550 ng/mL or bFGF at 220 ng/mL for 50 ng/mL or 20 ng/mL final concentrations, respectively, are prepared since 10 μL of each will be added to the cells (110 μL final volume). At the appropriate time after adding the compounds, the growth factors are added. VEGF is added to one set of plates, while bFGF is added to another set of plates. For the growth factor control curves, the media on wells B4-G6 of plates 1 and 2 are replaced with media containing VEGF or bFGF at the varying concentrations (50-0 ng/mL). The cells are incubated at 37° C. for an additional 72 h.
At the completion of the 72 h incubation period, the medium is removed, and the cells are washed twice with PBS. After the second wash with PBS, the plates are tapped gently to remove excess PBS, and the cells are placed at −70° C. for at least 30 min. The cells are thawed and analyzed using the CyQuant fluorescent dye (Molecular Probes C-7026), following the manufacturer's recommendations. The plates are read on a Victor/Wallac 1420 workstation at 485 nm/530 nm (excitation/emission). Raw data are collected and analyzed using a 4-parameter fit equation in XLFit. IC50 values are then determined.

The next test concerns the target T1, CYP 2D6 (Homo sapiens, UniProt P10635).
T1 construct: followed by 555.6 ml of 20 mg/mL HLM (BD Gentest); tissue BD Gentest; host or cells: human liver microsomes
Description: Human Liver Microsome CYP 2D6 Inhibition. Format: in vitro ADME. The note with it: human liver microsomes, bufuralol substrate; read-out: inhibited CYP2D6 microsomes, IC50. As to the method:
Determining the IC-50 for Human Liver Microsome CYP 2D6 Inhibition
Postassium Phosphate Buffer pH 7.4 (39.333 mL) is chilled in an ice bath and added to a 50 ml plastic tube. A 3.2 mM bufuralol solution is prepared. 111.1 ul of 3.2 mM bufuralol is added to the buffer followed by 555.6 ml of 20 mg/mL HLM (BD Gentest). The incubation mixture was gently inverted and equilibrated at 37° C. for 5 min. A stock inhibitor solution is prepared, such as in DMSO. Incubation mixture (801 ul) is added into 96-well, 1.2 mL plastic tubes. Inhibitor is added at various concentrations (e.g. 30 μM to […]). The tubes are sealed and mix by inverting 5 times gently. The incubation mixture containing inhibitor (270 μL) is added by aliquot into wells of a 1 mL, 96-well block (duplicate). The block is placed into a 37° C. water bath and equilibrated for 3 minutes. 10 mM NADPH (30 ml) is added to all samples. After 5 min, the reactions are stopped by adding 300 ml of Quench Solution [0.1% TFA in CH3CN]. 1′-OH-bufuralol-d9 (750 ng/mL 30 μL) is added, the block is gently vortexed then centrifuged at 3000 rpm for 10 min at 4° C. 50 μL of supernatant from all samples is added by aliquot into a shorter, 96-well block. The aliquoted supernatants are pooled with other assay(s) and HPLC Grade Water (50 μL) is added to all samples. After covering and shaking by vortex gently for 2 minutes, the solutions were analyzed by LC-MS (API 3000, 5% MeOH w/0.1% AcOH to 95% MeOH w/0.1% AcOH). 500 nM quinidine is used as a control.
(In general: Microsomes from liver hold many membrane-bound enzymes, among them those of drug oxidation.)

Structures are written as SMILES.

T1 sequence (P10635 whole entry): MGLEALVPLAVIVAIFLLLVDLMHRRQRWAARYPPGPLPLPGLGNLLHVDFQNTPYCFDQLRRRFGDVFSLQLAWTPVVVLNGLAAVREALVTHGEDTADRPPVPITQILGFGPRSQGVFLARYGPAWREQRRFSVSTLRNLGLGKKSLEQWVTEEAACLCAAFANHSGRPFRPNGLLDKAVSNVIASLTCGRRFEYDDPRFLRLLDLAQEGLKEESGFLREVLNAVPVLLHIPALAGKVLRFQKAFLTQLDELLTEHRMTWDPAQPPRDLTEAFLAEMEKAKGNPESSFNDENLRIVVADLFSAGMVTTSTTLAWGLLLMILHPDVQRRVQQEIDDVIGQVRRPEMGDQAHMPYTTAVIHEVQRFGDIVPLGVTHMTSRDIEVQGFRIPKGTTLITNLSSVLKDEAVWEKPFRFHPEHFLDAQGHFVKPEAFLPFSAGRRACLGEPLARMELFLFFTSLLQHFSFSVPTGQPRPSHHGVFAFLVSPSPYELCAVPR

On to `CC1(C)CN(C(=O)C2CCCO2)Cc2cc(NC(=O)c3cccnc3NCc3ccnc4[nH]ccc34)ccc21` (single isomer, unassigned) [Example 14, N-{4,4-Dimethyl-2-[(2R*)-tetrahydrofuran-2-ylcarbonyl]-1,2,3,4-tetrahydroisoquinolin-7-yl}-2-[(1H-pyrrolo[2,3-b]pyridin-4-ylmethyl)amino]nicotinamide], for which the figures for the IC50 (in test [1]; on CYP 2D6) were < 500 nM and > 20000 nM, respectively.

With `CC(=O)N1CC(C)(C)c2ccc(NC(=O)c3cccnc3NCc3ccnc4[nH]ccc34)cc21` [Example 6, N-(1-Acetyl-3,3-dimethyl-2,3-dihydro-1H-indol-6-yl)-2-[(1H-pyrrolo[2,3-b]pyridin-4-ylmethyl)amino]nicotinamide], the IC50 in test [1] is < 500 nM; at CYP 2D6, > 20000 nM.

As for `CC(=O)N1CC2(CC2)c2ccc(NC(=O)c3cccnc3NCc3ccnc4[nH]ccc34)cc21` [Example 7], the values for the IC50 (in test [1]; at CYP 2D6) were < 500 nM and > 20000 nM, respectively.

Consider `CC1(C)CC(=O)Nc2cc(NC(=O)c3cccnc3NCc3ccnc4[nH]ccc34)ccc21` [Example 12, N-(4,4-Dimethyl-2-oxo-1,2,3,4-tetrahydroquinolin-7-yl)-2-[(1H-pyrrolo[2,3-b]pyridin-4-ylmethyl)amino]nicotinamide], for which the IC50 in test [1] was < 500 nM; at CYP 2D6, > 20000 nM.

With `CC(=O)N1Cc2cc(NC(=O)c3cccnc3NCc3ccnc4[nH]ccc34)ccc2C(C)(C)C1` [Example 13, N-(2-Acetyl-4,4-dimethyl-1,2,3,4-tetrahydroisoquinolin-7-yl)-2-[(1H-pyrrolo[2,3-b]pyridin-4-ylmethyl)amino]nicotinamide], the IC50 in test [1] was < 500 nM; on CYP 2D6 it was > 20000 nM.

Consider `CC1(C)CN(C(=O)CN)Cc2cc(NC(=O)c3cccnc3NCc3ccnc4[nH]ccc34)ccc21` [Example 15, N-(2-Glycyl-4,4-dimethyl-1,2,3,4-tetrahydroisoquinolin-7-yl)-2-[(1H-pyrrolo[2,3-b]pyridin-4-ylmethyl)amino]nicotinamide], for which the IC50 at CYP 2D6 was > 20000 nM.

Consider `O=C(Nc1ccc(C(F)(F)F)c(Cl)c1)c1cc(F)cnc1NCc1ccnc2[nH]ccc12` [Example 100, N-(3-chloro-4-(trifluoromethyl)phenyl)-5-fluoro-2-((1H-pyrrolo[2,3-b]pyridin-4-ylmethyl)amino)-3-pyridinecarboxamide], for which the IC50 in test [1] is < 500 nM.

As to `CC1(C)CNCc2cc(NC(=O)c3cc(F)cnc3NCc3ccnc4[nH]ccc34)ccc21` [Example 101, N-(4,4-dimethyl-1,2,3,4-tetrahydro-7-isoquinolinyl)-5-fluoro-2-((1H-pyrrolo[2,3-b]pyridin-4-ylmethyl)amino)-3-pyridinecarboxamide], the IC50 in test [1] was < 500 nM.

As to `CC1Sc2ccc(NC(=O)c3cc(F)cnc3NCc3ccnc4[nH]ccc34)cc2NC1=O` (stereo not shown) [Example 108, 5-fluoro-N-(2-methyl-3-oxo-3,4-dihydro-2H-1,4-benzothiazin-6-yl)-2-((1H-pyrrolo[2,3-b]pyridin-4-ylmethyl)amino)-3-pyridinecarboxamide], the IC50 in test [1] is < 500 nM.

Consider `Cc1ccc(NC(=O)c2cc(F)cnc2NCc2ccnc3[nH]ccc23)cc1` [Example 109, 5-fluoro-N-(4-methylphenyl)-2-((1H-pyrrolo[2,3-b]pyridin-4-ylmethyl)amino)-3-pyridinecarboxamide], for which, in test [1], the IC50 is < 500 nM.

Take `Cc1ccc(NC(=O)c2cc(F)cnc2NCc2ccnc3[nH]ccc23)cc1Cl` [Example 110, N-(3-chloro-4-methylphenyl)-5-fluoro-2-((1H-pyrrolo[2,3-b]pyridin-4-ylmethyl)amino)-3-pyridinecarboxamide]: in test [1], the IC50 is < 500 nM.

For the compound `Cc1ccc(NC(=O)c2cc(F)cnc2NCc2ccnc3[nH]ccc23)cc1F` [Example 111, 5-fluoro-N-(3-fluoro-4-methylphenyl)-2-((1H-pyrrolo[2,3-b]pyridin-4-ylmethyl)amino)-3-pyridinecarboxamide], the IC50 in test [1] is < 500 nM.

As to `CN(C)c1nc2cc(NC(=O)c3cc(F)cnc3NCc3ccnc4[nH]ccc34)ccc2s1` [Example 114, N-(2-(dimethylamino)-1,3-benzothiazol-5-yl)-5-fluoro-2-((1H-pyrrolo[2,3-b]pyridin-4-ylmethyl)amino)-3-pyridinecarboxamide], in test [1], the IC50 is < 500 nM.

For the compound `Cc1nc2cc(NC(=O)c3cc(F)cnc3NCc3ccnc4c3CCN4)ccc2s1` [Example 115, 2-((2,3-dihydro-1H-pyrrolo[2,3-b]pyridin-4-ylmethyl)amino)-5-fluoro-N-(2-methyl-1,3-benzothiazol-5-yl)-3-pyridinecarboxamide], the IC50 in test [1] is < 500 nM.

`O=C(Nc1ccc(Cl)c(C(F)(F)F)c1)c1cc(F)cnc1NCc1ccnc2[nH]ncc12` [Example 119, N-(4-Chloro-3-(trifluoromethyl)phenyl)-5-fluoro-2-((1H-pyrazolo[3,4-b]pyridin-4-ylmethyl)amino)-3-pyridinecarboxamide]: the IC50 in test [1] is < 500 nM.

`O=C(Nc1cccc(C(F)(F)F)c1)c1cc(F)cnc1NCc1ccnc2[nH]ncc12` [Example 122, 5-Fluoro-2-((1H-pyrazolo[3,4-b]pyridin-4-ylmethyl)amino)-N-(3-(trifluoromethyl)phenyl)-3-pyridinecarboxamide]: the IC50 in test [1] is < 500 nM.

Consider `CC(C)Oc1ccc(NC(=O)c2cc(F)cnc2NCc2ccnc3[nH]ncc23)cc1` [Example 124, 5-Fluoro-N-(4-((1-methylethyl)oxy)phenyl)-2-((1H-pyrazolo[3,4-b]pyridin-4-ylmethyl)amino)-3-pyridinecarboxamide], for which the IC50 in test [1] was < 500 nM.

`O=C(Nc1ccc(C(F)(F)F)c(F)c1)c1cc(F)cnc1NCc1ccnc2[nH]ncc12` [Example 128, 5-Fluoro-N-(3-fluoro-4-(trifluoromethyl)phenyl)-2-((1H-pyrazolo[3,4-b]pyridin-4-ylmethyl)amino)-3-pyridinecarboxamide]: the IC50 in test [1] was < 500 nM.

Turning to `CC1(C)CNCc2cc(NC(=O)c3cc(F)cnc3NCc3ccnc4[nH]ncc34)ccc21` [Example 129, N-(4,4-Dimethyl-1,2,3,4-tetrahydro-7-isoquinolinyl)-5-fluoro-2-((1H-pyrazolo[3,4-b]pyridin-4-ylmethyl)amino)-3-pyridinecarboxamide], the IC50 in test [1] is < 500 nM.

For `CC1(C)CCNc2cc(NC(=O)c3cccnc3NCc3ncnc4[nH]ccc34)ccc21` [Example 131, N-(4,4-Dimethyl-1,2,3,4-tetrahydro-7-quinolinyl)-2-((7H-pyrrolo[2,3-d]pyrimidin-4-ylmethyl)amino)-3-pyridinecarboxamide], in test [1], the IC50 was < 500 nM.
